The record followed here is PubChem BioAssay (NCI).

Some test systems named below: HOP-92 NSCLC; M14 melanoma; SK-MEL-5 melanoma; A498 renal; SK-MEL-28 melanoma; COLO 205 colon; SNB-19 CNS; MCF7 breast; OVCAR-5 ovarian; U251 CNS.
Common to all, as to assay: DTP human tumour cell line panel, 48 h

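Exposure lasted 48 hours, with cells grown in 96-well plates and compounds tested at five concentrations. At the GI50, growth is halved. The concentration for full growth arrest is given as TGI.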

By GI50 is commonly meant the concentration that inhibits growth by half. One may read the TGI as the concentration at which net growth stops. High values mean less potent growth arrest, low ones more potent growth arrest. As to `C/C(=N\NC(=O)c1ccncc1)c1ccc(O)cc1O`, the GI50 in the test with HOP-92 NSCLC is 17.1 µM; in the test on M14 melanoma, 6.44 µM; in the test on SK-MEL-5 melanoma, 3.47 µM; with A498 renal, 8.61 µM; in the test with SK-MEL-28 melanoma, 9.26 µM; with COLO 205 colon, 3.8 µM. The GI50 in the test on SNB-19 CNS is 5.29 µM; in the test with MCF7 breast it was 4.92 µM; in the test with OVCAR-5 ovarian it was 27 µM; in the test on U251 CNS, 1.59 µM. The TGI with HOP-92 NSCLC was above 100 µM; in the test on M14 melanoma it was above 100 µM; with SK-MEL-5 melanoma it was 29.6 µM; in the test with A498 renal it was above 100 µM; with SK-MEL-28 melanoma, above 100 µM; in the test with COLO 205 colon, above 100 µM. The TGI in the test with SNB-19 CNS, in the test with MCF7 breast, with OVCAR-5 ovarian and in the test with U251 CNS was above 100 µM in each case.

On to `CC[C@]12CCCN3CC[C@]4(C(=C(C(=O)OC)C1)Nc1ccccc14)[C@@H]32`, for which the GI50 was 7.09 µM with HOP-92 NSCLC; 20.5 µM in the test on M14 melanoma; 15.4 µM in the test on SK-MEL-5 melanoma; 16.1 µM with A498 renal; 21.3 µM in the test on SK-MEL-28 melanoma; 16.9 µM in the test with COLO 205 colon. In addition, the GI50 in the test with SNB-19 CNS was 22.9 µM; with MCF7 breast it was 16 µM; in the test with OVCAR-5 ovarian, 15.9 µM; in the test on U251 CNS, 15.1 µM. Moreover, the TGI is 24.6 µM with HOP-92 NSCLC; 51.7 µM in the test on M14 melanoma; 28.8 µM in the test on SK-MEL-5 melanoma; 32.4 µM in the test on A498 renal; 64.7 µM in the test on SK-MEL-28 melanoma; 35.7 µM in the test on COLO 205 colon. For the same compound, the TGI came out at 66.2 µM in the test on SNB-19 CNS, 33.8 µM in the test on MCF7 breast, 34.1 µM in the test on OVCAR-5 ovarian and 29.6 µM in the test on U251 CNS.

As for `CC/C=C\C/C=C\C[C@H]1C/C=C2/C(=O)C=C[C@H]2C/C=C\CCC(=O)O1`, the GI50 is 2.72 µM in the test with HOP-92 NSCLC; 4.48 µM with M14 melanoma; 2.24 µM in the test with SK-MEL-5 melanoma; 4.07 µM in the test with A498 renal; 3.12 µM in the test with SK-MEL-28 melanoma; 3.11 µM in the test on COLO 205 colon. In addition, the GI50 in the test with SNB-19 CNS was 5.04 µM; in the test on MCF7 breast, 0.824 µM; in the test with OVCAR-5 ovarian, 4.13 µM; with U251 CNS, 3.06 µM. The total growth inhibition concentration (TGI) in the test with HOP-92 NSCLC was 8.01 µM; with M14 melanoma, above 14.3 µM; in the test with SK-MEL-5 melanoma it was 4.41 µM; in the test with A498 renal, 13.3 µM; with SK-MEL-28 melanoma it was 8.01 µM; in the test with COLO 205 colon, 6.71 µM. For the same compound, the TGI is above 14.3 µM with SNB-19 CNS, 11.8 µM in the test on MCF7 breast, above 14.3 µM with OVCAR-5 ovarian and 9.71 µM with U251 CNS.

As for `Cc1nn(-c2ccc(Br)cc2)c(C)c1CC(=O)c1cc(O)ccc1O`, the GI50 in the test with M14 melanoma was 29.6 µM; in the test with SK-MEL-5 melanoma it was 6.84 µM; with A498 renal, 7.18 µM; in the test with SK-MEL-28 melanoma, 12.6 µM; in the test with COLO 205 colon it was 16.4 µM; in the test on SNB-19 CNS, 15 µM. Also, the GI50 in the test on MCF7 breast is 6.27 µM; with OVCAR-5 ovarian it was 16.2 µM; in the test with U251 CNS it was 10.1 µM. The TGI in the test with M14 melanoma was above 50 µM; with SK-MEL-5 melanoma it was 20.3 µM; in the test with A498 renal, 47.3 µM; with SK-MEL-28 melanoma it was 47.5 µM; in the test on COLO 205 colon it was above 50 µM; with SNB-19 CNS, above 50 µM. Also, the values for the TGI in the test on MCF7 breast, in the test on OVCAR-5 ovarian and in the test with U251 CNS were 18.8 µM, above 50 µM and 21.8 µM, respectively.

In the case of `CC(C)[C@@H]1CC[C@@H]2[C@@H]1[C@H](OC(=O)/C=C/c1ccccc1)[C@]1(C(C)C)C[C@@H](OC(=O)CO)[C@@]2(C)O1`, the GI50 in the test with HOP-92 NSCLC is 4.34 µM; in the test on M14 melanoma it was 5.83 µM; in the test on SK-MEL-5 melanoma, 5.96 µM; in the test with A498 renal, 0.00806 µM; in the test with SK-MEL-28 melanoma, 4.89 µM; in the test on COLO 205 colon, 6.12 µM. Moreover, the GI50 was 5.37 µM in the test on SNB-19 CNS, 4.88 µM in the test with MCF7 breast, 5.15 µM with OVCAR-5 ovarian and 5.54 µM in the test with U251 CNS. For the same compound, the TGI is 8.88 µM in the test with HOP-92 NSCLC; 12.1 µM in the test with M14 melanoma; 10.8 µM in the test with SK-MEL-5 melanoma; 0.0288 µM with A498 renal; 9.87 µM with SK-MEL-28 melanoma; 12.8 µM with COLO 205 colon. Further, the TGI was 10.8 µM with SNB-19 CNS, 10.5 µM in the test on MCF7 breast, 10.2 µM in the test on OVCAR-5 ovarian and 10.6 µM in the test on U251 CNS.

As for `COc1ccc(CNc2nc(NCc3ccc(OC)cc3)c3n[nH]c(C(C)C)c3n2)cc1`, the GI50 with HOP-92 NSCLC is 9.48 µM; in the test on M14 melanoma, 2.28 µM; in the test with SK-MEL-5 melanoma, 1.57 µM; in the test on A498 renal it was 2.21 µM; with SK-MEL-28 melanoma, 2.13 µM; in the test with SNB-19 CNS it was 4.46 µM. The GI50 in the test on MCF7 breast is 3.31 µM; in the test with OVCAR-5 ovarian, 8.65 µM; in the test on U251 CNS, 4.22 µM. In addition, the TGI is 37.4 µM with HOP-92 NSCLC; 5 µM in the test with M14 melanoma; 3.01 µM in the test with SK-MEL-5 melanoma; 16.7 µM in the test on A498 renal; 16 µM in the test with SK-MEL-28 melanoma; 23.1 µM in the test with SNB-19 CNS. Moreover, the TGI with MCF7 breast amounted to 13.9 µM; with OVCAR-5 ovarian it was 56.6 µM; in the test on U251 CNS it was 21.1 µM.

As to `O=C1C(Cl)=C(Nc2cccc(O)c2)C(=O)N1c1cccc(Cl)c1Cl`, the GI50 is 0.262 µM in the test with HOP-92 NSCLC; 14.8 µM in the test on M14 melanoma; 7.01 µM with SK-MEL-5 melanoma; 24.4 µM in the test on SK-MEL-28 melanoma; 15.3 µM in the test on COLO 205 colon; 19.1 µM in the test on SNB-19 CNS. The results for the GI50 in the test on MCF7 breast, with OVCAR-5 ovarian and in the test on U251 CNS were 13.7 µM, 22.4 µM and 12.4 µM, respectively. Further, the TGI in the test with HOP-92 NSCLC was 5.91 µM; in the test on M14 melanoma, 31.7 µM; with SK-MEL-5 melanoma, 21.7 µM; in the test with SK-MEL-28 melanoma it was above 100 µM; with COLO 205 colon, 38.9 µM; in the test with SNB-19 CNS it was 82.9 µM. Further, the figures for the TGI in the test on MCF7 breast, in the test with OVCAR-5 ovarian and with U251 CNS were 42.7 µM, 57.7 µM and 30.8 µM, respectively.

In the case of `COC(=O)C1C2CCCN2OC1(C)CO` (stereo not drawn), the TGI in the test on M14 melanoma, in the test on SK-MEL-5 melanoma, in the test on A498 renal, in the test with SK-MEL-28 melanoma, with COLO 205 colon and in the test on SNB-19 CNS was above 100 µM in each case. Further, the TGI with MCF7 breast, in the test with OVCAR-5 ovarian and with U251 CNS was above 100 µM in each case.
